Data on 1 molecule can be found in publication PMC12009420, “Dynamically chiral phosphonic acid-type metallo-β-lactamase inhibitors” (Communications Chemistry, 2025).

What is called Ki is a measure of affinity in units of concentration, obtained from inhibition or displacement. As usually defined, the IC50 is the concentration that inhibits the measured activity by half. Higher therefore signals a need for much substance.

Common to all, as to format: biochemical
Assay [1] addresses T1, GIM-1 (Pseudomonas aeruginosa, UniProt Q704V1). The assay is described as follows: Enzymatic metallo-β-lactamase assay on purified GIM-1. As to conditions: approximated from Dixon plots (1/v vs [I]) at one constant substrate concentration; ± SE; read-out: Estimated inhibition constant Ki GIM-1.
Assay [2] addresses T2, VIM-2 (Escherichia coli, UniProt Q5U7L7). The assay is described as follows: Enzymatic metallo-β-lactamase assay on purified VIM-2.
For assay [3], the target named is T1, GIM-1. Description: Enzymatic metallo-β-lactamase assay on purified GIM-1.
Assay [4] has as its target T2, VIM-2. Description: Enzyme steady state kinetic studies (inhibitor 5g and VIM-2). To be noted: for Ki / Vmax: nitrocefin. The method, then: Enzyme steady state kinetic studies were performed to determine the mechanism of inhibition using inhibitor 5g and VIM-2 (Section 7, Supplementary Information). […] Assays were conducted in triplicates on a 96 well plate. Absorbance was measured at 482 nm using a SpectraMax 190 plate reader. Solutions of 300 μL consisting of buffer, purified enzyme (0.3 nM VIM-2), inhibitor 5g and reporter substrate nitrocefin with final 2.5% DMSO were incubated in triplicates on a 96 well plate for 5 min at 30 °C. Buffer solution consisted of 50 mM HEPES pH 7.2, 50 μM ZnSO4 and 0.4 mg/ml bovine serum albumin.
7. Enzyme kinetic studies
Enzyme steady state kinetic studies were performed to determine the mechanism of inhibition using inhibitor 5g and VIM-2. Km’, Ki and Vmax values were determined (Table S6).
For data analysis, SimFit software was used to fit the initial reaction velocities (v₀) to a Michaelis-Menten (1:1) model (Figure S40a). […]
Table S6. Kinetic parameters (Km’, Ki and vmax values) of inhibitor 5g against VIM-2 using nitrocefin as reporter substrate.
Figure S40. a, Michaelis-Menten fitting of the substrate concentration dependence of initial reaction velocities. b, Double reciprocal plot of the data in a, for VIM-2 in the absence and presence of inhibitor 5g at two concentrations (36 μM and 72 μM) using nitrocefin as substrate. [I] is the concentration of inhibitor 5g.

T1 sequence (Q704V1 entry or part of it): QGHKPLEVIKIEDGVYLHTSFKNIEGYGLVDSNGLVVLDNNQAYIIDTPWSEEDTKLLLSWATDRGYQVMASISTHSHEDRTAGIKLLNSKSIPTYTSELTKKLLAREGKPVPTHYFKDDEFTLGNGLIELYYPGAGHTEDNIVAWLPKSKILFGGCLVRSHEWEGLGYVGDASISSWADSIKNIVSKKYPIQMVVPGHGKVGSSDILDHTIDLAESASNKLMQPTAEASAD

With `O=C(NC(c1ccccc1O)P(=O)(O)O)c1scc2c1CCCC2` (stereo not drawn) [5g], the Ki at GIM-1 [1] was 113 ± 66 µM; at VIM-2 [2] (approximated from Dixon plots (1/v vs [I]) at one constant substrate concentration, ± SE, read-out: Estimated inhibition constant Ki VIM-2) it was 43 ± 15 µM; on VIM-2 [4] (Michaelis-Menten fit and Lineweaver-Burk plot, 30 °C), 36 ± 3.3 µM; on VIM-2 [4] ([I] 36 μM), 31.3 µM; at VIM-2 [4] ([I] 72 μM), 40.7 µM. The “logIC50 VIM-2” value at VIM-2 [2] (log of IC50, ± SEM of logIC50) was 1.06 ± 0.04 μM. Also, the IC50 against VIM-2 [2] (purified enzyme 1 nM, nitrocefin 15 μM, pH 7.2, 25 °C) is 12 µM; on GIM-1 [3] (purified enzyme 1 nM, nitrocefin 2 μM, pH 7.2, 25 °C), 21 µM. Besides, the “logIC50 GIM-1” value on GIM-1 [3] (log of IC50, ± SEM of logIC50) came out at 1.33 ± 0.11 μM. For the same molecule, at VIM-2 [4] (Michaelis-Menten model and Lineweaver-Burk plot), the inhibition mode result is recorded as “competitive inhibition”. Besides, the Vmax at VIM-2 [4] ([I] 36 μM) is 50.0 ΔA/min; at VIM-2 [4] ([I] 72 μM) it was 47.0 ΔA/min.
